Results: patent US20260263473A1 (priority 2023, published 2026)

Assay: Blood levels of the actives after the three-compartment transdermal patch in a COVID patient
Type: in vivo, human
Conditions: for time at which blood levels rose to a peak: transdermal patch (48 mg ivermectin, 300 mg doxycycline, 50 mg zinc chelate; gelling agent and water), adhered to left side of chest for 3 days
Procedure: A patient with diabetes and hypertension had acquired COVID as proven by PCR. […] They were treated with a transdermal patch containing higher dose of active antiviral drugs including 48 mg of ivermectin, 300 mg of doxycycline, and 50 mg of zinc chelate. The transdermal patch had three separate compartments, each compartment containing one of ivermectin, doxycycline and zinc chelate. Each active ingredient was formulated with a gelling agent and water. The patch remained adhered to the left side of the chest for 3 days. Blood levels of each of the ivermectin, doxycycline and zinc chelate rose to a peak at 10 hrs, The patient's cough continued but slowly resolved and they were not breathless. […] The patient oxygen saturation improved within 2 days with oximetry rising to 96%.

[1] = orally treated patients (comparison)
[2] = transdermal patch, adhered to chest for 3 days, one patient

Compound	persistence of blood levels (area under the curve) [1]	time at which blood levels rose to a peak (one patient)	area under the curve compared with single oral medications [2]	persistence of blood levels (area under the curve) [2]
ivermectin	48 h	10 h	greater than that of single oral medications	140 h
C[C@H]1c2cccc(O)c2C(=O)C2=C(O)[C@]3(O)C(=O)C(C(N)=O)=C(O)[C@@H](N(C)C)[C@@H]3[C@@H](O)[C@@H]21 [doxycycline]	48 h	10 h	greater than that of single oral medications	140 h
